How the values were obtained:
[1] = Growth inhibition of mouse J774 cells at 32 uM after 24 hrs by resazurin reduction assay; assay type: cell-based; conditions: read-out: GI
[2] = system: Trypanosoma cruzi; assay: Growth inhibition of epimastigote form of Trypanosoma cruzi CL-B5 at 32 uM after 72 hrs by lacZ reporter gene assay; assay type: functional; conditions: CL-B5, 72 h, read-out: GI
[3] = Growth inhibition of mouse J774 cells at 128 uM after 24 hrs by resazurin reduction assay; assay type: cell-based; conditions: read-out: GI
[4] = Growth inhibition of mouse J774 cells at 2.5 uM after 24 hrs by resazurin reduction assay; assay type: cell-based; conditions: read-out: GI
[5] = Growth inhibition of mouse J774 cells at 0.625 uM after 24 hrs by resazurin reduction assay; assay type: cell-based; conditions: read-out: GI
[6] = Growth inhibition of mouse J774 cells at 256 uM after 24 hrs by resazurin reduction assay; assay type: cell-based; conditions: read-out: GI
[7] = Growth inhibition of mouse J774 cells at 64 uM after 24 hrs by resazurin reduction assay; assay type: cell-based; conditions: read-out: GI
[8] = system: Trypanosoma cruzi; assay: Growth inhibition of epimastigote form of Trypanosoma cruzi CL-B5 at 5 uM after 72 hrs by lacZ reporter gene assay; assay type: functional; conditions: CL-B5, 72 h, read-out: GI
[9] = Growth inhibition of mouse J774 cells at 16 uM after 24 hrs by resazurin reduction assay; assay type: cell-based; conditions: read-out: GI
[10] = system: Trypanosoma cruzi; assay: Growth inhibition of epimastigote form of Trypanosoma cruzi CL-B5 at 256 uM after 72 hrs by lacZ reporter gene assay; assay type: functional; conditions: CL-B5, 72 h, read-out: GI
[11] = Growth inhibition of mouse J774 cells at 8 uM after 24 hrs by resazurin reduction assay; assay type: cell-based; conditions: read-out: GI
[12] = system: Trypanosoma cruzi; assay: Growth inhibition of epimastigote form of Trypanosoma cruzi CL-B5 at 0.625 uM after 72 hrs by lacZ reporter gene assay; assay type: functional; conditions: CL-B5, 72 h, read-out: GI
[13] = system: Trypanosoma cruzi; assay: Growth inhibition of epimastigote form of Trypanosoma cruzi CL-B5 at 8 uM after 72 hrs by lacZ reporter gene assay; assay type: functional; conditions: CL-B5, 72 h, read-out: GI
[14] = system: Trypanosoma cruzi; assay: Growth inhibition of epimastigote form of Trypanosoma cruzi CL-B5 at 16 uM after 72 hrs by lacZ reporter gene assay; assay type: functional; conditions: CL-B5, 72 h, read-out: GI
[15] = Growth inhibition of mouse J774 cells at 5 uM after 24 hrs by resazurin reduction assay; assay type: cell-based; conditions: read-out: GI
[16] = Growth inhibition of mouse J774 cells at 1.25 uM after 24 hrs by resazurin reduction assay; assay type: cell-based; conditions: read-out: GI
[17] = system: Trypanosoma cruzi; assay: Growth inhibition of epimastigote form of Trypanosoma cruzi CL-B5 at 64 uM after 72 hrs by lacZ reporter gene assay; assay type: functional; conditions: CL-B5, 72 h, read-out: GI
[18] = system: Trypanosoma cruzi; assay: Growth inhibition of epimastigote form of Trypanosoma cruzi CL-B5 after 72 hrs by lacZ reporter gene assay; assay type: functional, organism-based; conditions: CL-B5, 72 h
[19] = system: Trypanosoma cruzi; assay: Growth inhibition of epimastigote form of Trypanosoma cruzi CL-B5 at 1.25 uM after 72 hrs by lacZ reporter gene assay; assay type: functional; conditions: CL-B5, 72 h, read-out: GI
[20] = system: Trypanosoma cruzi; assay: Growth inhibition of epimastigote form of Trypanosoma cruzi CL-B5 at 128 uM after 72 hrs by lacZ reporter gene assay; assay type: functional; conditions: CL-B5, 72 h, read-out: GI
[21] = system: Trypanosoma cruzi; assay: Growth inhibition of epimastigote form of Trypanosoma cruzi CL-B5 at 2.5 uM after 72 hrs by lacZ reporter gene assay; assay type: functional; conditions: CL-B5, 72 h, read-out: GI
[22] = system: Trypanosoma cruzi; assay: Growth inhibition of epimastigote form of Trypanosoma cruzi CL-B5 at 1 uM after 72 hrs by lacZ reporter gene assay; assay type: functional; conditions: CL-B5, 72 h, read-out: GI
[23] = Growth inhibition of mouse J774 cells at 4 uM after 24 hrs by resazurin reduction assay; assay type: cell-based; conditions: read-out: GI
[24] = system: Trypanosoma cruzi; assay: Growth inhibition of epimastigote form of Trypanosoma cruzi CL-B5 at 2 uM after 72 hrs by lacZ reporter gene assay; assay type: functional; conditions: CL-B5, 72 h, read-out: GI
[25] = Growth inhibition of mouse J774 cells at 1 uM after 24 hrs by resazurin reduction assay; assay type: cell-based; conditions: read-out: GI
[26] = system: Trypanosoma cruzi; assay: Growth inhibition of epimastigote form of Trypanosoma cruzi CL-B5 at 4 uM after 72 hrs by lacZ reporter gene assay; assay type: functional; conditions: CL-B5, 72 h, read-out: GI
[27] = Growth inhibition of mouse J774 cells at 2 uM after 24 hrs by resazurin reduction assay; assay type: cell-based; conditions: read-out: GI

IC50 [18]	SMILES	inhibition at 24 h, 32 µM [1]	inhibition of growth at 32 µM [2]	inhibition at 24 h, 128 µM [3]	inhibition at 24 h, 2.5 µM [4]	inhibition at 24 h, 0.625 µM [5]	inhibition at 24 h, 256 µM [6]	inhibition at 24 h, 64 µM [7]	inhibition of growth at 5 µM [8]	inhibition at 24 h, 16 µM [9]	inhibition of growth at 256 µM [10]	inhibition at 24 h, 8 µM [11]	inhibition of growth at 0.625 µM [12]	inhibition of growth at 8 µM [13]	inhibition of growth at 16 µM [14]	inhibition at 24 h, 5 µM [15]	inhibition at 24 h, 1.25 µM [16]	inhibition of growth at 64 µM [17]	inhibition of growth at 1.25 µM [19]	inhibition of growth at 128 µM [20]	other results
0.93 µM	CCCn1c2ccc([N+](=O)[O-])cc2c(=O)n1Cc1ccccc1	0%	100%	0%	0.85%	4.18%	0%	0%	61.5%	0%	94.8%	0%	56.2%	100%	100%	0.64%	0.14%	92.7%	59.5%	92.8%	inhibition of growth at 2.5 µM [21]: 59.8%
2.39 µM	CC(C)n1c2ccc([N+](=O)[O-])cc2c(=O)n1Cc1ccccc1	0%	100%	0%			0%	14.5%		0%	90.4%	10.3%		80.3%	97.6%			87.6%		88.3%	inhibition of growth at 1 µM [22]: 28%; inhibition at 24 h, 4 µM [23]: 65.2%; inhibition of growth at 2 µM [24]: 37.4%; inhibition at 24 h, 1 µM [25]: 5.87%; inhibition of growth at 4 µM [26]: 4.11%; inhibition at 24 h, 2 µM [27]: 8.76%
1.17 µM	CCCCn1c2ccc([N+](=O)[O-])cc2c(=O)n1Cc1ccccc1	27.1%	100%	67.5%	1.92%	0.14%	81.6%	33.3%	61.7%	7.92%	84%	7.65%	49.7%	93%	100%	2.36%	5.37%	82.8%	55.9%	88.3%	inhibition of growth at 2.5 µM [21]: 58.2%
